Experimental data as given in patent US20260242563A1, “DEGRADABLE CROSSLINKING AGENT” (NAGASE CHEMTEX CORPORATION, priority 2023, published 2026).

Experiments:
[1] = Water solubility of degradation products in ion exchange water at 20° C.
[2] = Adding a small amount of 12% sodium hypochlorite aqueous solution to the cross-linking agent compound; type: physicochemical; settings: small amount of 12% sodium hypochlorite aqueous solution added to the compound
[3] = one gram in 10 mL of ion exchange water
[4] = 0.3 g in 10 mL of ion exchange water

| Structure (SMILES) | water solubility [1, 3] | degradation product generated (confirmed by 1H-NMR) [2] | observation upon adding oxidizing agent [2] | further results |
| --- | --- | --- | --- | --- |
| OCCCCCCO [1,6-hexanediol] | soluble |  |  |  |
| O=C(O)c1cc(C(=O)O)cc(S(=O)(=O)O)c1 [5-sulfoisophthalic acid] | soluble |  |  |  |
| O=C(O)CCCCCO [6-hydroxyhexanoic acid] |  |  |  | water solubility ([1]; 0.5 g in 10 mL of ion exchange water): soluble |
| C=C(C)C(=O)NNC(=O)OCCOCCOCCOC(=O)NNC(=O)C(=C)C [Formula (A1)] |  | triethylene glycol | foaming occurred |  |
| C=CCOC(=O)NNC(=O)OCCCCCCOC(=O)NNC(=O)OCC=C [Formula (A3)] |  | 1,6-hexanediol | foaming occurred |  |
| NNC(=O)CCC(NC(=O)NNC(=O)c1cc(C(=O)NNC(=O)NC(=O)NC(CCC(=O)NN)C(=O)NN)cc(S(=O)(=O)[O-])c1)C(=O)NN.[Na+] (centres unmarked) [Formula (A6)] |  | sodium 5-sulfoisophthalate | foaming occurred |  |
| C=CCOC(=O)NNC(=O)CCC(NC(=O)NNC(=O)c1cc(C(=O)NNC(=O)NC(CCC(=O)NNC(=O)OCC=C)C(=O)NNC(=O)OCC=C)cc(S(=O)(=O)[O-])c1)C(=O)NNC(=O)OCC=C.[Na+] (centres unmarked) [Formula (A7)] |  | sodium 5-sulfoisophthalate and glutamic acid | foaming occurred |  |
| C=CCOC(=O)NNC(=O)CCC(NC(=O)NNC(=O)CCC(=O)NNC(=O)NC(CCC(=O)NNC(=O)OCC=C)C(=O)NNC(=O)OCC=C)C(=O)NNC(=O)OCC=C (centres unmarked) [Formula (A8)] |  | succinic acid and glutamic acid | foaming occurred |  |
| C=C(C)C(=O)NNC(=O)c1ccc(OCC(O)COc2ccc(C(C)(C)c3ccc(OCC(O)COc4ccc(C(=O)NNC(=O)C(=C)C)cc4)cc3)cc2)cc1 (centres unmarked) [Formula (B), reference compound] |  | compound of formula (C) | foaming occurred |  |
| CC(C)(c1ccc(OCC(O)COc2ccc(C(=O)O)cc2)cc1)c1ccc(OCC(O)COc2ccc(C(=O)O)cc2)cc1 (centres unmarked) [Formula (C)] |  |  |  | water solubility [1, 4]: insoluble |
| NCCCCCCN [hexamethylenediamine] | soluble |  |  |  |
| OCCOCCOCCO [triethylene glycol] | soluble |  |  | water solubility ([1]; 2 g in 10 mL of ion exchange water): soluble |
| O=C(O)c1cc(C(=O)O)cc(C(=O)O)c1 [trimesic acid] |  |  |  | water solubility [1, 4]: insoluble |
